In patent US8987256B2, “Oxo-heterocyclic substituted carboxylic acid derivatives and the use thereof” (Bayer Intellectual Property GmbH, priority 2008, dated 2015):

Legend:
[1] = target: T1, soluble guanylate cyclase (sGC) (Rattus norvegicus, UniProt P20595); test: Activating action at the sGC enzyme in vitro (PPi detection, luciferase); type: biochemical; conditions: for EC50: read-out: EC50 (concentration at 50% of maximum efficacy), activating action at the sGC enzyme
T1 construct: made in house; host or cells: baculovirus/Sf9 insect cells
T1 sequence (P20595 1-619): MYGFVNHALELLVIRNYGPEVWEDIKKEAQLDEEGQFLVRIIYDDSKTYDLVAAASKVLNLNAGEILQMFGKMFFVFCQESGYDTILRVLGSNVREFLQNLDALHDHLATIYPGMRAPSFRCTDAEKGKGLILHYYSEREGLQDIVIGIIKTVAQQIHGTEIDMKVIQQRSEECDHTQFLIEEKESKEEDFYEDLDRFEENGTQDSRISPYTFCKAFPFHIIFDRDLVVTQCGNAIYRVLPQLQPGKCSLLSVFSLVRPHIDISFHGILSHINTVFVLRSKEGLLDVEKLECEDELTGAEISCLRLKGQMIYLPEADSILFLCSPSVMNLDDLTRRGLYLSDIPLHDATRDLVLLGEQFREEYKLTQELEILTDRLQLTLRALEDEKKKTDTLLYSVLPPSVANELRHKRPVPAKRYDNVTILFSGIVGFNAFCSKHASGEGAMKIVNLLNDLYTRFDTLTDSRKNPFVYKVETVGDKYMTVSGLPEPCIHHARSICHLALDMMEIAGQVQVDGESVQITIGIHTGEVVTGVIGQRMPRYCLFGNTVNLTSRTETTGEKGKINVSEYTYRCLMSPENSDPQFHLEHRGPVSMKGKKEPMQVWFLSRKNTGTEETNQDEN
T1 sequence (P19686 1-690 partner): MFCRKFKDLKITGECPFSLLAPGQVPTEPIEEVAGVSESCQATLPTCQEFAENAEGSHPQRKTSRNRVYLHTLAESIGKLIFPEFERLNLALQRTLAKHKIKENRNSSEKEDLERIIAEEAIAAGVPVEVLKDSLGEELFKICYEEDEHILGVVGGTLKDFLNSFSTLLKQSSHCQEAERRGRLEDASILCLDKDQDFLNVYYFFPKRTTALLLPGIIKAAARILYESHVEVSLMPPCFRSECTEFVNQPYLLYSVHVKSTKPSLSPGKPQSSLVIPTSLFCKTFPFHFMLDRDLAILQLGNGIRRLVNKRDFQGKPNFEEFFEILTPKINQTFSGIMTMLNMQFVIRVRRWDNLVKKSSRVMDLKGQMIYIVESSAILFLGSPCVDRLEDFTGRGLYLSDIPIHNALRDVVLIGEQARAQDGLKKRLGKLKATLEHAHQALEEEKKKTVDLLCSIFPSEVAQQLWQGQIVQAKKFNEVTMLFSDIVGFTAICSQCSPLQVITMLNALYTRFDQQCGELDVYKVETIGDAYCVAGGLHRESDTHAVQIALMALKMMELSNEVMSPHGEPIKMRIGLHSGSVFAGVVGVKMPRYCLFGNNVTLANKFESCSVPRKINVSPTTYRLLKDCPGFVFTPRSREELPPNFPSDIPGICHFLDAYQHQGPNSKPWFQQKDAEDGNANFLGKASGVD
Procedure, shortened: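 Rat sGC (0–10 nM) preincubated 10 min at room temperature with compound in TEA buffer, pH 7.5; reaction started with GTP (1.25 mM solution). PPi formed read continuously by luciferase luminescence; stimulation expressed relative to unstimulated enzyme. Heme-free enzyme tested after 30 min with 25 μM ODQ.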

[2] = system: saphenous artery rings; test: Vasorelaxant effect in vitro (phenylephrine-contracted artery rings); set-up: species or system Rabbits; conditions: concentration reducing phenylephrine-induced contraction by 50%
Method: Rabbits are anesthetized and sacrificed by intravenous injection of thiopental sodium (about 50 mg/kg) and exsanguinated. The saphenous artery is removed and divided into rings 3 mm wide. The rings are mounted singly on in each case a pair of triangular hooks open at the end and made of 0.3 mm-thick special wire (Remanium®). Each ring is placed under an initial tension in 5 ml organ baths with Krebs-Henseleit solution which is at 37° C., is gassed with carbogen and has the following composition: NaCl 119 mM; KCl 4.8 mM; CaCl2×2H2O 1 mM; MgSO4×7H2O 1.4 mM; KH2PO4 1.2 mM; NaHCO3 25 mM; glucose 10 mM; bovine serum albumin 0.001%. The force of contraction is detected with Statham UC2 cells, amplified and digitized via A/D converters (DAS-1802 HC, Keithley Instruments, Munich) and recorded in parallel on chart recorders. Contractions are induced by addition of phenylephrine.
After several (generally 4) control cycles, the substance to be investigated is added in each further run in increasing dosage, and the level of the contraction achieved under the influence of the test substance is compared with the level of the contraction reached in the last preceding run. The concentration necessary to reduce the contraction reached in the preceding control by 50% is calculated from this (IC50). The standard application volume is 5 μl. The proportion of DMSO in the bath solution corresponds to 0.1%.

[3] = target: T2, recombinant guanylate cyclase reporter cell line (Rattus norvegicus, UniProt P20595); test: sGC-activating activity in the CHO reporter cell in vitro; type: cell-based
T2 construct: expressed in transfected cells; host or cells: CHO reporter cell line
T2 sequence (P20595 1-619): T1 sequence (P20595 1-619)
T2 sequence (P19686 1-690 partner): T1 sequence (P19686 1-690 partner)
Method: The cellular action of the compounds according to the invention is determined at a recombinant guanylate cyclase reporter cell line, as described in F. Wunder et al., Anal. Biochem. 339, 104-112 (2005).

MEC (minimum effective concentration), activating action at the sGC enzyme [1] [nM]	EC50 [1] [nM]	IC50 ([2]; Oryctolagus cuniculus) [nM]	MEC (minimum effective concentration), sGC-activating activity in the CHO reporter cell [3] [nM]	IC50 [2] [nM]	SMILES
0.5	18	86	1		O=C(Nc1cccc(CC2(C(=O)O)CC2)c1)[C@H](c1ccc(CN2N=C(c3ccccc3)OCC2=O)cc1)C1CCCC1 [Example 204, (+)-1-(3-{[(2S)-2-Cyclopentyl-2-{4-[(5-oxo-2-phenyl-5,6-dihydro-4H-1,3,4-oxadiazin-4-yl)-methyl]phenyl}acetyl]amino}benzyl)cyclopropane carboxylic acid]
0.5	6.1		0.3	26	CC(C(C(=O)Nc1cccc(CC2(C(=O)O)CC2)c1)c1ccc(CN2N=C(c3ccccc3)OCC2=O)cc1)C(F)(F)F (single isomer, unassigned) [Example 164, 1-{3-[(4,4,4-trifluoro-3-methyl-2-{4-[(5-oxo-2-phenyl-5,6-dihydro-4H-1,3,4-oxadiazin-4-yl)methyl]phenyl}-butanoyl)amino]benzyl}cyclopropanecarboxylic acid]
1.6	40	163	3		Cc1c(CCC(=O)O)cccc1NC(=O)C(c1ccc(CN2N=C(c3ccccc3)OCC2=O)cc1)C1CCCC1 (single isomer, unassigned) [Example 115, 3-{3-[(cyclopcntyl{4-[(5-oxo-2-phcnyl-5,6-dihydro-4H-1,3,4-oxadiazin-4-yl)mcthyl]phcnyl}acetyl)amino]-2-mcthylphcnyl}propanoic acid]
1	20	490	1		O=C(O)CCc1ccc(F)c(NC(=O)[C@H](c2ccc(CN3N=C(c4ccccc4)OCC3=O)cc2)C2CCCC2)c1 [Example 224]
0.4	24	625	1		CCC(C)C(C(=O)Nc1cccc(CCC(=O)O)c1C)c1ccc(CN2N=C(c3ccccc3)OCC2=O)cc1 (single isomer, unassigned) [Example 77, 3-{2-Methyl-3-[(3-methyl-2-{4-[(5-oxo-2-phenyl-5,6-dihydro-4H-1,3,4-oxadiazin-4-yl)methyl]phenyl}pentanoyl)amino]phenyl}propanoic acid]
10	320	145	30		O=C(O)C1Cc2cccc(NC(=O)C(c3ccc(CN4N=C(c5ccccc5)OCC4=O)cc3)C3CCCC3)c2C1 (single isomer, unassigned) [Example 126, 4-[(cyclopcntyl{4-[(5-oxo-2-phcnyl-5,6-dihydro-4H-1,3,4-oxadiazin-4-yl)mcthyl]phcnyl}acetyl)amino]-2,3-dihydro-1H-indenc-2-carboxylic acid]
